Patent US20260232578A1, “COMPOSITIONS AND METHODS FOR TRANSMUCOSAL ABSORPTION” (Tonix Pharma Limited, priority 2012, published 2026)
Like-named read-outs stand apart in the source and are kept apart here.

Tests used:
[1] = target: T1, muscarinic M1 receptor (Homo sapiens, UniProt P11229)
T1 sequence (P11229 1-460): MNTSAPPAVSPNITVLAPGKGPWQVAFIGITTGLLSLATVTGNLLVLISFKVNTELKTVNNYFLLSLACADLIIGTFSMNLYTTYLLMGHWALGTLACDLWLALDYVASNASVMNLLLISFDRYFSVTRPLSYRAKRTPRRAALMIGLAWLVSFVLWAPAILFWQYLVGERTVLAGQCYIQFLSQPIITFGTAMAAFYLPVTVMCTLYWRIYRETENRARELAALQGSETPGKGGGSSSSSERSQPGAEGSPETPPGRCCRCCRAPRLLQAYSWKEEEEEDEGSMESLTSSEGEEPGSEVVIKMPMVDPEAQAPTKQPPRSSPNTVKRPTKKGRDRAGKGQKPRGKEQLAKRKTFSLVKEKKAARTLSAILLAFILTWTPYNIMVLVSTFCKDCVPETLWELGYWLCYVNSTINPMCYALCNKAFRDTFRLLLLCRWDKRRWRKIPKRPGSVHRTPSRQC

[2] = clinical; conditions: human, in vivo, 2.4 mg
Procedure: Treatment A: A single dose of one TNX-102 2.4 mg SL tablet (with phosphate). Subjects were asked to keep the tablet under the tongue until dissolved and not to crush or chew it. Subjects were asked not to drink any water until at least 1 hour after dosing.
Treatment B: A single dose of one TNX-102-A 2.4 mg SL tablet (without phosphate). Subjects were asked to keep the tablet under the tongue until dissolved and not to crush or chew it. Subjects were asked not to drink any water until at least 1 hour after dosing.
Treatment C: A single dose of two TNX-102 2.4 mg SL tablets (with phosphate). Subjects will be asked to keep the tablets under the tongue until dissolved and not to crush or chew them. Subjects were asked not to drink any water until at least 1 hour after dosing.
Subjects were asked to swallow the administered tablet whole and not to crush or chew it.
Partial AUC at different times were calculated to examine the effect of sublingual administration on absorption.

[3] = humans, cited from earlier work
[4] = Pharmacokinetics of sublingual cyclobenzaprine HCl tablets with and without K2HPO4 (Example 10); assay type: in vivo, beagle dog; conditions: 2.4 mg sublingual tablet with basifying agent
Procedure: Pharmacokinetic parameters were then calculated and compared.
For sublingual dosing, dogs were given propofol and were put in a lying position (ventral decubitis). The mouth was gently opened and the tablet was placed under the tongue. The tongue was then immediately replaced in its initial position and the mouth was closed. The dog was left in the same position until waking. […] After the washout period of two weeks, dogs were sedated in the same way and given a single sublingual dose of the formulation without basifying agent. Blood samples after both types of treatment were taken pre-dose and at 5, 10, 20, 30, and 45 minutes, and at 1, 2, 3, 4, 6, 8, and 10 hours after dose administration. Blood was taken from the jugular vein.
The method involved liquid-liquid extraction with hexane. The extracts were injected using an HPLC system and an API4000® (Applied Biosystems) for MS/MS detection, with an “Onyx monolithic Phenomenex C18 100×3.0 mm” column.
Sublingual administration was performed by placing the control tablet or tablet with K2HPO4 under the tongue when female beagles were slightly anesthetized with propofol.

[5] = Beagle; for plasma level adjusted to 0.14 mg/kg: Hucker IV
Procedure: Doses were expressed as free base, and so should be adjusted by MW Free Base 275 g/mole/MW HCl salt 312 g/mole. […] In our Beagle studies, the dose was 0.14 mg/kg, which is approximately 1/12.6 the dose of the Hucker studies.

[6] = clinical; conditions: human, in vivo, po, 5 mg
Procedure: The conditions used were as follows:
Quantitation was based on peak area ratio of the analytes versus their stable labeled internal standards. A weighted (1/C2), linear regression was performed to determine the concentration of the analytes. All regressions and figures presented in this validation report were generated by MDS Sciex Analyst version 1.4.2 and Thermo Electron Corporation Watson LIMS software, version 7.0.0.01b. […] Select receptors were analyzed in ligand-induced intracellular calcium mobilization.

[7] = in vivo; conditions: beagle, dog
Procedure: Each dog was sampled at pre-dose before and after Propofol (when possible) and at 5, 10 and 20 minutes post-dose.

[8] = 2.5 mg immediate release tablets (Winchell)
[9] = 5.0 mg immediate release tablets (Winchell)
[10] = 10 mg immediate release tablets (Winchell)

SMILES: CNCCC=C1c2ccccc2C=Cc2ccccc21 [norcyclobenzaprine, 3-(5H-dibenzo[a,d]cyclohepten-5-ylidene)-N-methyl-1-propanamine]
- Hill plot ratio (Hill slope) [1]: 0.70

SMILES: CN(C)CCC=C1c2ccccc2C=Cc2ccccc21 [cyclobenzaprine, 3-(5H-dibenzo[a,d]cyclohepten-5-ylidene)-N,N-dimethyl-1-propanamine]
- AUC(0-inf) [2]: ~61 ng·h/mL
- Cmax [2]: ~2.74 ng/mL
- AUC(0-t) ([2]; AUC0-20min): ~0.04 ng·h/mL
- AUC(0-t) ([2]; AUC0-30min): ~0.13 ng·h/mL
- AUC(0-t) ([2]; AUC0-45min): ~0.33 ng·h/mL
- AUC(0-t) ([2]; AUC0-1 h): ~0.61 ng·h/mL
- AUC(0-t) ([2]; AUC0-2 h): ~2.1 ng·h/mL
- AUC(0-t) ([2]; AUC0-3 h): ~3.93 ng·h/mL
- AUC(0-t) ([2]; AUC0-4 h): ~6.27 ng·h/mL
- AUC(0-t) ([2]; AUC0-5.5 h): ~10.1 ng·h/mL
- AUC(0-t) ([2]; AUC0-6 h): ~11.3 ng·h/mL
- AUC(0-t) ([2]; AUC0-8 h): ~15.1 ng·h/mL
- AUC(0-t) ([2]; AUC0-12 h): ~50.3 ng·h/mL
- AUC(0-t) ([2]; AUC0-[…] (second mention, after AUC0-[…])): ~8.81 ng·h/mL
- AUC0-8 h [3, 8]: 11.1 ng·h/mL
- AUC0-∞h [3, 8]: 44.2 ng·h/mL
- AUC0-8 h [3, 9]: 23.0 ng·h/mL
- AUC0-∞h [3, 9]: 89.5 ng·h/mL
- AUC0-8 h [3, 10]: 45.9 ng·h/mL
- AUC0-∞h [3, 10]: 178.2 ng·h/mL
- dbmnAUC0-0.75 h ([4]; Beagles 12.5 kg): 0.000708 kg·h/mL
- dnAUC0-0.75 h ([4]; Beagles): 5.65e-05 h/mL
- plasma level adjusted to 0.14 mg/kg ([5]; 0.5 h): 34.1 ng/mL
- plasma level adjusted to 0.14 mg/kg ([5]; 2 hours): 47.6 ng/mL
- plasma level adjusted to 0.14 mg/kg ([5]; 6 h): 35.7 ng/mL
- peak plasma level adjusted to 0.14 mg/kg ([5]; Hucker PO gelatin capsule, at 2 hours): 115.9 ng/mL
- AUC(0-t) [6]: 92.2 ± 29.9 ng·h/mL
- bioavailability, sublingual vs IV calculated in the same condition [7]: about 200%
